Data: article PMC5727165, “A switch in nucleotide affinity governs activation of the Src and Tec family kinases” (Scientific Reports, 2017)
Entries after “also recorded” stand apart in the source; their conditions may differ.

Experiments:
Format in all cases: binding
[1] = biological target: T1, Src^32KΔC (Mus musculus, UniProt P05480); assay: Competition nucleotide displacement assay (Mant-ADP, fluorescence anisotropy)
T1 construct: mouse Src^85-523 (Src^32KΔC); GST (cleaved yes); made in house; host or cells: baculovirus-infected Sf9 insect cells
T1 sequence (P05480 85-523, stated change not applied): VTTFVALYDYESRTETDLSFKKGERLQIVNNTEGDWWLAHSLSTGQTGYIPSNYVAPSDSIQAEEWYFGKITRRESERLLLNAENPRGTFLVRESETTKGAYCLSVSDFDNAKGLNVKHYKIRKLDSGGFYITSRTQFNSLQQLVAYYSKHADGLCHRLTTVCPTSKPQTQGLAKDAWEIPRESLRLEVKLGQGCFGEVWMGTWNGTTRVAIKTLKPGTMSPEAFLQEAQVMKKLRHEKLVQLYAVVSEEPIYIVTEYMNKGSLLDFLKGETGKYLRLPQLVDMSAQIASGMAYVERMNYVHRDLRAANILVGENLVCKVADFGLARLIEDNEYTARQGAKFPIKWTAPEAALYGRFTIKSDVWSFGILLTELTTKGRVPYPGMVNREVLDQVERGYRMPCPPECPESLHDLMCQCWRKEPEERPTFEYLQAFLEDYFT
Description: Figure 2 Itk adopts a Src-like autoinhibited conformation. (a) Competition nucleotide displacement assay for Src^32KΔC. 40 μM Src^32KΔC was incubated with 40 μM Mant-ADP until equilibrium was established. Unlabelled ADP or AMPPNP was titrated into the reaction and fluorescence anisotropy monitored. […] (b) Small angle X-ray scattering curves for Itk^32K (cyan), Src^32K (magenta), Src^32KΔC (blue), and Src^32K R175L (green). […] (d) Table of physical parameters obtained from the scattering curves for Itk^32K, Src^32K, Src^32KΔC, and Src^32K R175L. (e)Ab initio model of Itk^32K and docking of autoinhibited Src (2SRC.pdb) into the molecular envelope. Two orientations of the envelope are shown for clarity. (f) Ab initio molecular envelope for Src^32KΔC illustrates the fit of the crystal structure of autoinhibited Src. TEXT PRINTED IN THE PICTURE: (a) ADP: Src^32KΔC Ki (mM): 0.03 ± 0.008 | (a) ANP: Src^32KΔC Ki (mM): 0.69 ± 0.140
The binding constants for ADP and AMPPNP were determined for Src and Itk proteins by fluorescence anisotropy, using 2′/3′-Mant-labelled nucleotides (Jena Bioscience). Increasing concentrations of Itk^32K, Itk^L351A or Src^32K were incubated with 40 μM Mant-nucleotide in 30 mM Tris pH 7.5, 200 mM NaCl, 5 mM MgCl2, and 1 mM TCEP. Measurements were made with a Perkin Elmer LS50B fluorimeter (λex = 355 nm, λem = 447 nm) at 20 °C. For each data point 50–60 measurements, each with an integration time of 1 s, were averaged. For competition nucleotide displacement assays, 40–80 μM of protein was incubated with 40 μM Mant-ADP until equilibrium was established. Unlabelled nucleotide was titrated into the reaction and fluorescence anisotropy monitored. The equilibrium inhibition constant for the unlabelled nucleotide was calculated from the fitted curve.

[2] = biological target: T1, Src^32KΔC; assay: Differential scanning fluorimetry (thermal stability vs nucleotide concentration); conditions: vs AMPPNP
Excerpt: Having observed that Itk^32K binds and is stabilised by ADP in the absence of a C-terminal tail, we investigated whether the C-terminal tail of Src influences its nucleotide binding or conformation in vitro, using a construct of Src lacking its C-tail (Src^32KΔC) and a SH2 domain mutant of Src that is incapable of binding phosphotyrosine peptides (Src^32K R175L, Supplementary Fig. 3a,b)[39]. […] Thermal stability measurements support the stabilisation of Src^32KΔC by ADP (Supplementary Fig. 6a). Thermal stabilities as a function of nucleotide concentration were measured by differential scanning fluorimetry (DSF). Samples contained 0.1 mg/ml protein in 50 mM Tris pH 7.5, 150 mM NaCl, 1 mM TCEP, and 5 mM MgCl2 with ADP, ATP, or AMPPNP concentrations ranging from 0–16 mM. Samples were measured in triplicate using a BioRad iQ™5 Multicolor Real-Time PCR Detection System. For detection of phosphorylated protein, samples were diluted and 1 ng and 15 ng were loaded to SDS-PAGE for Src and Itk proteins, respectively. Phosphorylation was measured by immunoblot.

[3] = biological target: T2, Src^32K (Mus musculus, UniProt P05480); assay: as above
T2 construct: mouse Src^85-535 (Src^32K); GST (cleaved yes); made in house; host or cells: baculovirus-infected Sf9 insect cells, co-expressed with human Csk
T2 sequence (P05480 85-535): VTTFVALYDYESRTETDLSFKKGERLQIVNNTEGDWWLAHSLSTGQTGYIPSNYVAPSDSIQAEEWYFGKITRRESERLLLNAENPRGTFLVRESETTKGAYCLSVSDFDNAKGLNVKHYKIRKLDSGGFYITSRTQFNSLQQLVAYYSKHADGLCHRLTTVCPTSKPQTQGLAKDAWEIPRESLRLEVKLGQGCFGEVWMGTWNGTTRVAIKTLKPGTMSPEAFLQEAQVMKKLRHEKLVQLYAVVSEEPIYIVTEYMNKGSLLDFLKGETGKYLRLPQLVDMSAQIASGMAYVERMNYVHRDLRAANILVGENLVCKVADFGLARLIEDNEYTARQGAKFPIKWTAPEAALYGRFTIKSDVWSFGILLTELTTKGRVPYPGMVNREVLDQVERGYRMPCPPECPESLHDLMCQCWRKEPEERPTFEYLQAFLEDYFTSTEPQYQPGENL
Description: (§1) We noted that the thermal stability of Src^32K initially decreases at low concentrations of ATP, before rising again at higher concentrations. This was reproducible and correlates with autophosphorylation of Tyr416 during the course of the assay (Supplementary Fig. 4h). Thermal stabilities as a function of nucleotide concentration were measured by differential scanning fluorimetry (DSF). Samples contained 0.1 mg/ml protein in 50 mM Tris pH 7.5, 150 mM NaCl, 1 mM TCEP, and 5 mM MgCl2 with ADP, ATP, or AMPPNP concentrations ranging from 0–16 mM. Samples were measured in triplicate using a BioRad iQ™5 Multicolor Real-Time PCR Detection System. For detection of phosphorylated protein, samples were diluted and 1 ng and 15 ng were loaded to SDS-PAGE for Src and Itk proteins, respectively. Phosphorylation was measured by immunoblot.

[4] = biological target: T3, Itk^32K (Homo sapiens, UniProt Q08881); assay: as above; conditions: same nucleotide concentrations, vs ATP or AMPPNP
T3 construct: Human Itk^171–620 (Itk^32K); GST (cleaved yes); made in house; host or cells: baculovirus-infected Sf9 insect cells
T3 sequence (Q08881 171-620): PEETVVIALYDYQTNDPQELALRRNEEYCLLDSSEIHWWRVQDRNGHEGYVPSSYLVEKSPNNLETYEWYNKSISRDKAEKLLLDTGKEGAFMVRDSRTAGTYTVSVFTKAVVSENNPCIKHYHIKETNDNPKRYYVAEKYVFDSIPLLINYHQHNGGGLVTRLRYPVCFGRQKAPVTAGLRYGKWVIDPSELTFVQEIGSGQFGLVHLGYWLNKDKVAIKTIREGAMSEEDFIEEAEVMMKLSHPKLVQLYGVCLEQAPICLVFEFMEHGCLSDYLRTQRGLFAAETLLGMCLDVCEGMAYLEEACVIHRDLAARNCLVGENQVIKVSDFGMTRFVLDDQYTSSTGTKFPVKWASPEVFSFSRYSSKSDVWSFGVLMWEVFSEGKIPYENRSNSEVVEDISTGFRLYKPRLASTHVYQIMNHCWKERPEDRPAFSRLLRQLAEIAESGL
Description: as §1

Ki ([1]; 40 μM Src^32KΔC, 40 μM Mant-ADP, read-out: Ki (equilibrium inhibition constant)): 30 ± 8 µM | fold difference in Ki, ADP preferred over AMPPNP ([1]; Src^32KΔC, displacement of Mant-ADP): approximately 23 fold | thermal stabilisation compared with other nucleotides [2]: higher thermal stability
Compound: Nc1ncnc2c1ncn2[C@@H]1O[C@H](COP(=O)(O)OP(=O)(O)O)[C@@H](O)[C@H]1O [ADP]
thermal stabilisation compared with other nucleotides ([3]; Src^32K pY416, vs ATP): higher thermal stability with ADP than ATP | thermal stabilisation compared with other nucleotides ([3]; Src^32K, same nucleotide concentrations, vs ATP or AMPPNP): to a greater extent; also recorded: higher thermal stability | thermal stabilisation compared with other nucleotides [4]: to a greater extent; also recorded: higher thermal stability
